Measured values as given in patent US20180273538A1, “PYRROLO[2,3-d]PYRIMIDINE DERIVATIVES, A PROCESS FOR THEIR PREPARATION AND PHARMACEUTICAL COMPOSITIONS CONTAINING THEM” (LES LABORATOIRES SERVIER, priority 2015, published 2018).

target: T1, His-TEV-DYRK1A Kinase domain (aa127-485) (Homo sapiens, UniProt Q13627); assay: Kinase ADP assay (ADP Hunter Plus); format: biochemical
T1 construct: His-TEV-DYRK1A Kinase domain (aa127-485); His (N); TEV cleavage site (N)

SMILES	IC50 [µM]
Cc1nc(OCCc2ccccc2)c2c(-c3ccncc3)c[nH]c2n1 [Example 10, 2-methyl-4-(2-phenylethoxy)-5-(pyridin-4-yl)-7H-pyrrolo[2,3-d]pyrimidine]	0.085
Cc1nc(OCCC2CC2)c2c(-c3ccncc3)c[nH]c2n1 [Example 8, 4-(2-cyclopropylethoxy)-2-methyl-5-(pyridin-4-yl)-7H-pyrrolo[2,3-d]pyrimidine]	0.038
Cc1nc(Nc2ccccc2)c2c(-c3ccnc(N)c3)c[nH]c2n1 [Example 129, 5-(2-aminopyridin-4-yl)-2-methyl-N-phenyl-7H-pyrrolo[2,3-d]pyrimidin-4-amine]	0.072
Cc1nc(NCc2ccnn2C)c2c(-c3ccnc(N)c3)c[nH]c2n1 [Example 38, 5-(2-aminopyridin-4-yl)-2-methyl-N-[(1-methyl-1H-pyrazol-5-yl)methyl]-7H-pyrrolo[2,3-d]pyrimidin-4-amine]	0.149
Cc1nc(NC(C)c2ccccc2)c2c(-c3ccnc(N)c3)c[nH]c2n1 (centres unmarked) [Example 49, 5-(2-aminopyridin-4-yl)-2-methyl-N-(1-phenylethyl)-7H-pyrrolo[2,3-d]pyrimidin-4-amine]	0.127
C=Cc1nc(NCc2c(F)cccc2F)c2c(-c3ccnc(N)c3)c[nH]c2n1 [Example 151, 5-(2-aminopyridin-4-yl)-N-(2,6-difluorobenzyl)-2-ethenyl-7H-pyrrolo[2,3-d]pyrimidin-4-amine]	0.028
Cc1nc(N2CCN(C)CC2)c2c(-c3ccnc(N)c3)c[nH]c2n1 [Example 33, 4-[2-methyl-4-(4-methypiperazin-1-yl)-7H-pyrrolo[2,3-d]pyrimidin-5-yl]pyridin-2-amine]	0.165
Cc1nc(NCC2COc3ccccc32)c2c(-c3ccnc(N)c3)c[nH]c2n1 (centres unmarked) [Example 112, 5-(2-aminopyridin-4-yl)-N-(2,3-dihydro-1-benzofuran-3-ylmethyl)-2-methyl-7H-pyrrolo[2,3-d]pyrimidin-4-amine]	0.234
N#Cc1nc(NCc2c(F)cccc2F)c2c(-c3ccnc(N)c3)c[nH]c2n1 [Example 157, 5-(2-aminopyridin-4-yl)-4-[(2,6-difluorobenzyl)amino]-7H-pyrrolo[2,3-d]pyrimidine-2-carbonitrile]	0.26
Cc1nc(-c2ccc3c(c2)OC(F)(F)O3)c2c(-c3ccnc(N)n3)c[nH]c2n1 [Example 210, 4-[4-(2,2-difluoro-1,3-benzodioxol-5-yl)-2-methyl-7H-pyrrolo[2,3-d]pyrimidin-5-yl]pyrimidin-2-amine]	0.05
Cc1nc(-c2ccc(C#N)c(F)c2)c2c(-c3ccnc(N)c3)c[nH]c2n1 [Example 175]	0.146
Cc1nc(N[C@@H](C)c2ncccc2F)c2c(-c3ccnc(N)c3)c[nH]c2n1 [Example 122, 5-(2-aminopyridin-4-yl)-N-[(1S)-1-(3-fluoropyridin-2-yl)ethyl]-2-methyl-7H-pyrrolo[2,3-d]pyrimidin-4-amine]	0.05
Cc1cc(-c2ccc3c(c2)N(C)CCO3)c2c(-c3ccnc(N)c3)c[nH]c2n1 [Example 225, 4-[6-methyl-4-(4-methyl-3,4-dihydro-2H-1,4-benzoxazin-6-yl)-1H-pyrrolo[2,3-b]pyridin-3-yl]pyridin-2-amine]	0.037
Cc1nc(NCc2cc(Cl)ccc2Cl)c2c(-c3ccnc(N)c3)c[nH]c2n1 [Example 92, 5-(2-aminopyridin-4-yl)-N-(2,5-dichlorobenzyl)-2-methyl-7H-pyrrolo[2,3-d]pyrimidin-4-amine]	0.087
COC1CCCN(c2nc(C)nc3[nH]cc(-c4cc(N)nc(N)c4)c23)C1 (centres unmarked) [Example 144, 4-[4-(3-methoxypiperidin-1-yl)-2-methyl-7H-pyrrolo[2,3-d]pyrimidin-5-yl]pyridine-2,6-diamine]	0.545
Cc1nc(-c2ccc(CN3CCN(C)CC3)cc2)c2c(-c3ccnc(N)c3)c[nH]c2n1 [Example 169, 4-(2-methyl-4-{4-[(4-methylpiperazin-1-yl)methyl]phenyl}-7H-pyrrolo[2,3-d]pyrimidin-5-yl)pyridin-2-amine]	0.216
Cc1nc(NCc2cc(C)on2)c2c(-c3ccncc3)c[nH]c2n1 [Example 46, 2-methyl-N-[(5-methyl-1,2-oxazol-3-yl)methyl]-5-(pyridin-4-yl)-7H-pyrrolo[2,3-d]pyrimidin-4-amine]	0.369
Cc1nc(NCc2c(F)cccc2F)c2c(-c3cc(N)ncn3)c[nH]c2n1 [Example 212, 5-(6-aminopyrimidin-4-yl)-N-(2,6-difluorobenzyl)-2-methyl-7H-pyrrolo[2,3-d]pyrimidin-4-amine]	0.009
C#Cc1nc(-c2ccc3c(c2)OCO3)c2c(-c3ccnc(N)c3)c[nH]c2n1 [Example 156, 4-[4-(1,3-benzodioxol-5-yl)-2-ethynyl-7H-pyrrolo[2,3-d]pyrimidin-5-yl]pyridin-2-amine]	0.029
C#Cc1nc(N2CCc3ccccc3C2)c2c(-c3ccnc(N)n3)c[nH]c2n1 [Example 211, 4-[4-(3,4-dihydroisoquinolin-2(1H)-yl)-2-ethynyl-7H-pyrrolo[2,3-d]pyrimidin-5-yl]pyrimidin-2-amine]	0.027

The remaining compounds from weak to strong by IC50, led by results:

IC50 [µM]	SMILES
1.94	Cc1nc(NCc2ccc(-c3ccccn3)s2)c2c(-c3ccnc(N)c3)c[nH]c2n1 [Example 87, 5-(2-aminopyridin-4-yl)-2-methyl-N-{[5-(pyridin-2-yl)thiophen-2-yl]methyl}-7H-pyrrolo[2,3-d]pyrimidin-4-amine]
1.07	Cc1nc(N2CCC(N(C)C)C2)c2c(-c3ccnc(N)c3)c[nH]c2n1 (centres unmarked) [Example 31, 4-{4-[3-(dimethylamino)pyrrolidin-1-yl]-2-methyl-7H-pyrrolo[2,3-d]pyrimidin-5-yl}pyridin-2-amine]
0.666	Cc1nc(N2CCCC2C(F)(F)F)c2c(-c3ccnc(N)c3)c[nH]c2n1 (centres unmarked) [Example 107, 4-{2-methyl-4-[2-(trifluoromethyl)pyrrolidin-1-yl]-7H-pyrrolo[2,3-d]pyrimidin-5-yl}pyridin-2-amine]
0.6	Cc1nc(Nc2ccccc2C(F)(F)F)c2c(-c3cc(N)nc(N)c3)c[nH]c2n1 [Example 131, 4-(2-methyl-4-{[2-(trifluoromethyl)phenyl]amino}-7H-pyrrolo[2,3-d]pyrimidin-5-yl)pyridine-2,6-diamine]
0.417	Cc1nc(N2CCn3ccnc3C2)c2c(-c3cc(N)nc(N)c3)c[nH]c2n1 [Example 141, 4-[4-(5,6-dihydroimidazo[1,2-a]pyrazin-7(8H)-yl)-2-methyl-7H-pyrrolo[2,3-d]pyrimidin-5-yl]pyridine-2,6-diamine]
0.336	Cc1nc(N2CCOC(C)C2)c2c(-c3ccnc(N)c3)c[nH]c2n1 (centres unmarked) [Example 137, 4-[2-methyl-4-(2-methylmorpholin-4-yl)-7H-pyrrolo[2,3-d]pyrimidin-5-yl]pyridin-2-amine]
0.269	COC1CCN(c2nc(C)nc3[nH]cc(-c4ccnc(N)c4)c23)CC1 [Example 133, 4-[4-(4-methoxypiperidin-1-yl)-2-methyl-7H-pyrrolo[2,3-d]pyrimidin-5-yl]pyridin-2-amine]
0.249	Cc1nc(NCc2ccsc2)c2c(-c3ccncc3)c[nH]c2n1 [Example 44, 2-methyl-5-(pyridin-4-yl)-N-(thiophen-3-ylmethyl)-7H-pyrrolo[2,3-d]pyrimidin-4-amine]
0.233	Cc1nc(NCc2ccccc2)c2c(-c3ccncc3)c[nH]c2n1 [Example 42, N-benzyl-2-methyl-5-(pyridin-4-yl)-7H-pyrrolo[2,3-d]pyrimidin-4-amine]
0.184	Cc1nc(CCc2ccccc2)c2c(-c3ccnc(N)c3)c[nH]c2n1 [Example 160]
0.158	Cc1nc(NCc2cncs2)c2c(-c3ccnc(N)c3)c[nH]c2n1 [Example 41, 5-(2-aminopyridin-4-yl)-2-methyl-N-(1,3-thiazol-5-ylmethyl)-7H-pyrrolo[2,3-d]pyrimidin-4-amine]
0.115	Cc1nc(N(C)Cc2c(F)cccc2F)c2c(-c3ccnc(N)c3)c[nH]c2n1 [Example 120, 5-(2-aminopyridin-4-yl)-N-(2,6-diflurobenzyl)-N,2-dimethyl-7H-pyrrolo[2,3-d]pyrimidin-4-amine]
0.114	COc1cccnc1C(C)Nc1nc(C)nc2[nH]cc(-c3ccnc(N)c3)c12 (centres unmarked) [Example 113, 5-(2-aminopyridin-4-yl)-N-[1-(3-methoxypyridin-2-yl)ethyl]-2-methyl-7H-pyrrolo[2,3-d]pyrimidin-4-amine]
0.094	Cc1nc(N[C@@H](C)c2ccccc2)c2c(-c3ccnc(N)c3)c[nH]c2n1 [Example 67, 5-(2-aminopyridin-4-yl)-2-methyl-N-[(1S)-1-phenylethyl]-7H-pyrrolo[2,3-d]pyrimidin-4-amine]
0.091	Cc1nc(N2CCn3ccnc3C2)c2c(-c3ccnc(N)c3)c[nH]c2n1 [Example 135, 4-[4-(5,6-dihydroimidazo[1,2-a]pyrazin-7(8H)-yl)-2-methyl-7H-pyrrolo[2,3-d]pyrimidin-5-yl]pyridin-2-amine]
0.07	Cc1nc(-c2cccc(OCCCN3CCOCC3)c2)c2c(-c3ccnc(N)c3)c[nH]c2n1 [Example 174, 4-(2-methyl-4-{3-[3-(morpholin-4-yl)propoxy]phenyl}-7H-pyrrolo[2,3-d]pyrimidin-5-yl)pyridin-2-amine]
0.07	Cc1cc(-c2c[nH]c3nc(C)nc(OC[C@@H]4CCCNC4)c23)ccn1 [Example 6, 2-methyl-5-(2-methylpyridin-4-yl)-4-[(3R)-piperidin-3-ylmethoxy]-7H-pyrrolo[2,3-d]pyrimidine]
0.066	CCC(Nc1nc(C)nc2[nH]cc(-c3ccnc(N)c3)c12)c1ncccc1F (centres unmarked) [Example 121, 5-(2-aminopyridin-4-yl)-N-[1-(3-fluoropyridin-2-yl)propyl]-2-methyl-7H-pyrrolo[2,3-d]pyrimidin-4-amine]
0.055	Cc1cc(-c2c[nH]c3nc(C)nc(NCc4c(F)cccc4F)c23)nc(N)n1 [Example 205, 5-(2-amino-6-methylpyrimidin-4-yl)-N-(2,6-difluorobenzyl)-2-methyl-7H-pyrrolo[2,3-d]pyrimidin-4-amine]
0.048	Cc1nc(N2CC[C@H]3CCCC[C@H]3C2)c2c(-c3ccnc(N)c3)c[nH]c2n1 [Example 110]
0.012	Cc1nc(-c2cccc(OCCCl)c2)c2c(-c3ccnc(N)c3)c[nH]c2n1 [Example 201]
